Experimental data: the NIST ThermoML archive (doi:10.1016/j.tca.2012.10.018)
Values joined by “and” are separate entries in the source; they are usually repeats but may differ in a detail not shown here. Identical values can stand only once. ± gives the expanded uncertainty stated by the source.

Key:
[1] = mn = molality of the nth substance listed, in mol/kg; details: 101 kPa, Liquid; for speed of sound: Sing-around technique in a fixed-path interferometer; for mass density: Vibrating tube method
[2] = 101 kPa, Liquid; for speed of sound: Sing-around technique in a fixed-path interferometer; for mass density: Vibrating tube method

CC1(C)SC2C(NC(=O)C(N)c3ccccc3)C(=O)N2C1C(=O)O (stereo not drawn) + O
[1]
Details	mass density, m1 = 0.0005 [kg/m3]	mass density, m1 = 0.001 [kg/m3]	mass density, m1 = 0.002 [kg/m3]	mass density, m1 = 0.004 [kg/m3]	speed of sound, m1 = 0.0005 [m/s]	speed of sound, m1 = 0.001 [m/s]	speed of sound, m1 = 0.002 [m/s]	speed of sound, m1 = 0.004
305.15 K	995.119 ± 2	995.211 ± 2	995.313 ± 2	995.507 ± 2	1513.6 ± 0.74	1513.8 ± 0.74	1514.1 ± 0.74	1514.2 ± 0.74 m/s
310.15 K	993.425 ± 2	993.515 ± 2	993.607 ± 2	993.805 ± 2	1523.4 ± 0.75	1523.6 ± 0.75	1524.1 ± 0.75	1524 ± 0.75 m/s
315.15 K	991.53 ± 2	991.614 ± 2	991.711 ± 2	991.91 ± 2	1531.9 ± 0.75	1532 ± 0.75	1532.4 ± 0.75	1532.4 ± 0.75 m/s and 1531.9 ± 0.75 m/s

NCC(=O)O [2-aminoacetic acid] + O
[1]
Details	mass density, m1 = 0.03272 [kg/m3]	mass density, m1 = 0.04933 [kg/m3]	mass density, m1 = 0.0581 [kg/m3]	mass density, m1 = 0.09278 [kg/m3]	mass density, m1 = 0.1392 [kg/m3]	speed of sound, m1 = 0.03272 [m/s]	speed of sound, m1 = 0.04933 [m/s]	speed of sound, m1 = 0.0581 [m/s]	speed of sound, m1 = 0.09278 [m/s]	speed of sound, m1 = 0.1392 [m/s]
305.15 K	996.158 ± 2	996.664 ± 2	996.929 ± 2	–	999.339 ± 2	1515 ± 0.74	1515.7 ± 0.74	1516.1 ± 0.74	1517.7 ± 0.74	1519.6 ± 0.74
310.15 K	993.281 ± 2	–	994.038 ± 2	995.054 ± 2	–	1524.9 ± 0.75	1525.5 ± 0.75	1525.9 ± 0.75	1527.3 ± 0.75	1529 ± 0.75
315.15 K	992.376 ± 2	–	993.122 ± 2	994.122 ± 2	995.416 ± 2	1533.4 ± 0.75	1534 ± 0.75	1534.3 ± 0.75	1535.6 ± 0.75	1537.2 ± 0.75

CC(C)C[C@H](NC(=O)CN)C(=O)O [glycyl-L-leucine] + O
[1]
Details	mass density, m1 = 0.03308 [kg/m3]	mass density, m1 = 0.05972 [kg/m3]	mass density, m1 = 0.09457 [kg/m3]	mass density, m1 = 0.1115 [kg/m3]	speed of sound, m1 = 0.03308 [m/s]	speed of sound, m1 = 0.05972 [m/s]	speed of sound, m1 = 0.09457 [m/s]	speed of sound, m1 = 0.1115 [m/s]
305.15 K	996.762 ± 2	998.038 ± 2	999.652 ± 2	1000.42 ± 2	1518.1 ± 0.79	1521.8 ± 0.8	1526.8 ± 0.8	1529.1 ± 0.8
310.15 K	993.879 ± 2	995.132 ± 2	996.722 ± 2	997.479 ± 2	1528 ± 0.79	1531.6 ± 0.8	1536.3 ± 0.8	1538.6 ± 0.78
315.15 K	992.968 ± 2	994.198 ± 2	995.757 ± 2	996.494 ± 2	1536.5 ± 0.79	1539.9 ± 0.79	1544.4 ± 0.8	1546.6 ± 0.8

NCC(=O)NCC(=O)O [glycylglycine] + O
[1]
Details	mass density, m1 = 0.01976 [kg/m3]	mass density, m1 = 0.03098 [kg/m3]	mass density, m1 = 0.06804 [kg/m3]	mass density, m1 = 0.08258 [kg/m3]	mass density, m1 = 0.1196 [kg/m3]	speed of sound, m1 = 0.01976 [m/s]	speed of sound, m1 = 0.03098 [m/s]	speed of sound, m1 = 0.06804 [m/s]	speed of sound, m1 = 0.08258 [m/s]	speed of sound, m1 = 0.1196 [m/s]
305.15 K	996.227 ± 2	996.841 ± 2	998.809 ± 2	999.555 ± 2	1001.4 ± 2	1515 ± 0.76	1515.8 ± 0.76	1518.5 ± 0.76	1519.5 ± 0.76	1522.1 ± 0.76
310.15 K	993.362 ± 2	993.969 ± 2	995.921 ± 2	996.662 ± 2	998.494 ± 2	1524.9 ± 0.76	1525.7 ± 0.76	1528.1 ± 0.76	1529.1 ± 0.76	1531.5 ± 0.76
315.15 K	992.463 ± 2	993.064 ± 2	994.996 ± 2	995.732 ± 2	997.528 ± 2	1533.4 ± 0.76	1534.1 ± 0.76	1536.3 ± 0.76	1537.2 ± 0.76	1539.4 ± 0.76

O [water]
[2]
Details	mass density [kg/m3]	speed of sound [m/s]
305.15 K	995.132 ± 2	1513.5 ± 0.74
310.15 K	992.274 ± 2	1523.5 ± 0.75
315.15 K	991.385 ± 2	1532.2 ± 0.75

O [water] + CC(C)C[C@H](NC(=O)CN)C(=O)O
[1], m2 = 0
Details	mass density [kg/m3]	speed of sound [m/s]
305.15 K	995.132 ± 2	1513.5 ± 0.79
310.15 K	992.274 ± 2	1523.5 ± 0.8
315.15 K	991.385 ± 2	1532.2 ± 0.79

O [water] + NCC(=O)NCC(=O)O
[1], m2 = 0
Details	mass density [kg/m3]	speed of sound [m/s]
305.15 K	995.132 ± 2	1513.5 ± 0.76
310.15 K	992.274 ± 2	1523.5 ± 0.8
315.15 K	991.385 ± 2	1532.2 ± 0.76

O [water] + NCC(=O)O
[1], m2 = 0
Details	mass density [kg/m3]	speed of sound [m/s]
305.15 K	995.132 ± 2	1513.5 ± 0.74
310.15 K	992.274 ± 2	1523.5 ± 0.75
315.15 K	991.385 ± 2	1532.2 ± 0.75
